Measurements as given in patent publication US7652029B2, “Therapeutic compound and treatments” (priority 2004, dated 2010).

Legend:
CCRF-CEM = assay: NCI multiple cell line test (SRB); type: cell-based, human; settings: CCRF-CEM (Leukemia), 48 h
HOP-92 = assay: NCI multiple cell line test (SRB); type: cell-based, human; settings: HOP-92 (Non-Small Cell Lung Cancer), 48 h
NCI-H23 = assay: NCI multiple cell line test (SRB); type: cell-based, human; settings: NCI-H23 (Non-Small Cell Lung Cancer), 48 h
NCI-H460 = assay: NCI multiple cell line test (SRB); type: cell-based, human
COLO 205 = assay: NCI multiple cell line test (SRB); type: cell-based, human; settings: COLO 205 (Colon Cancer), 48 h
KM12 = assay: NCI multiple cell line test (SRB); type: cell-based, human; settings: KM12 (Colon Cancer), 48 h
SNB-19 = assay: NCI multiple cell line test (SRB); type: cell-based, human; settings: SNB-19 (CNS Cancer), 48 h
U251 = assay: NCI multiple cell line test (SRB); type: cell-based, human; settings: U251 (CNS Cancer), 48 h
SK-MEL-2 = assay: NCI multiple cell line test (SRB); type: cell-based, human; settings: SK-MEL-2 (Melanoma), 48 h
SK-MEL-28 = assay: NCI multiple cell line test (SRB); type: cell-based, human; settings: SK-MEL-28 (Melanoma), 48 h
SK-MEL-5 = assay: NCI multiple cell line test (SRB); type: cell-based, human; settings: SK-MEL-5 (Melanoma), 48 h
IGROV1 = assay: NCI multiple cell line test (SRB); type: cell-based, human; settings: IGROV1 (Ovarian Cancer), 48 h
OVCAR-5 = assay: NCI multiple cell line test (SRB); type: cell-based, human; settings: OVCAR-5 (Ovarian Cancer), 48 h
OVCAR-8 = assay: NCI multiple cell line test (SRB); type: cell-based, human; settings: OVCAR-8 (Ovarian Cancer), 48 h
ACHN = assay: NCI multiple cell line test (SRB); type: cell-based, human; settings: ACHN (Renal Cancer), 48 h
CAKI-1 = assay: NCI multiple cell line test (SRB); type: cell-based, human; settings: CAKI-1 (Renal Cancer), 48 h
TK-10 = assay: NCI multiple cell line test (SRB); type: cell-based, human; settings: TK-10 (Renal Cancer), 48 h
UO-31 = assay: NCI multiple cell line test (SRB); type: cell-based, human; settings: UO-31 (Renal Cancer), 48 h
PC-3 = assay: NCI multiple cell line test (SRB); type: cell-based, human; settings: PC-3 (Prostate Cancer), 48 h
MCF7 = assay: NCI multiple cell line test (SRB); type: cell-based, human
MDA-MB-231/ATCC = assay: NCI multiple cell line test (SRB); type: cell-based, human; settings: MDA-MB-231/ATCC (Breast Cancer), 48 h
T-47D = assay: NCI multiple cell line test (SRB); type: cell-based, human; settings: T-47D (Breast Cancer), 48 h
SCK cells = assay: Growth response, MTT dye conversion assay; type: cell-based, murine; settings: FIG. 8; 48 hours; compared with cisplatin
Lewis murine lung cells = assay: Growth response, MTT dye conversion assay; type: cell-based; settings: FIG. 9; mouse lung cell line
ACHN cells = assay: Growth response, MTT dye conversion assay; type: cell-based, human; settings: low doses (FIG. 14 as printed)
[1] = Homo sapiens, read-out: −log10GI50 (converted)
[2] = NCI-H460 (Non-Small Cell Lung Cancer), 48 h

## COC(=O)C1=C(C(=O)OC)SC2(S1)C(C(=O)OC)=C(C(=O)OC)SC1=C2c2cccc(OC)c2N(C(=O)CN2C(=O)CCC2=O)C1(C)C [MT477]
CCRF-CEM
  −log10LC50: * (effect not reached at maximum dose of 0.05 millimolar)
  −log10TGI: * (effect not reached at maximum dose of 0.05 millimolar)
CCRF-CEM; [1]
  IC50: 3.24 µM
HOP-92
  −log10LC50: 4.6 molar
  −log10TGI: 5.21 molar
HOP-92; [1]
  IC50: 1.66 µM
NCI-H23; [1]
  IC50: 0.955 µM
NCI-H23
  −log10LC50: 5.42 molar
  −log10TGI: 5.72 molar
NCI-H460; Homo sapiens, NCI-H460 (Non-Small Cell Lung Cancer), 48 h, read-out: −log10GI50 (converted)
  IC50: 1.74 µM
NCI-H460; Homo sapiens, NCI-H460, MT477 ACTUAL
  GI50: 1.74 µM
NCI-H460; MT477 ACTUAL
  Activity against lung cancer NCI-H460: Yes
NCI-H460; [2]
  −log10LC50: * (effect not reached at maximum dose of 0.05 millimolar)
  −log10TGI: * (effect not reached at maximum dose of 0.05 millimolar)
COLO 205
  −log10LC50: * (effect not reached at maximum dose of 0.05 millimolar)
  −log10TGI: 5.19 molar
COLO 205; [1]
  IC50: 1.66 µM
KM12; [1]
  IC50: 2.29 µM
KM12
  −log10LC50: * (effect not reached at maximum dose of 0.05 millimolar)
  −log10TGI: * (effect not reached at maximum dose of 0.05 millimolar)
SNB-19; [1]
  IC50: 7.94 µM
SNB-19
  −log10LC50: 4.46 molar
  −log10TGI: 4.78 molar
U251; Homo sapiens, U-251, read-out: −log10GI50 (converted)
  IC50: 2 µM
U251
  −log10LC50: 4.72 molar
  −log10TGI: 5.14 molar
SK-MEL-2; [1]
  IC50: 4.68 µM
SK-MEL-2
  −log10LC50: * (effect not reached at maximum dose of 0.05 millimolar)
  −log10TGI: 4.41 molar
SK-MEL-28; [1]
  IC50: 1.55 µM
SK-MEL-28
  −log10LC50: * (effect not reached at maximum dose of 0.05 millimolar)
  −log10TGI: 5.27 molar
SK-MEL-5; [1]
  IC50: 6.17 µM
SK-MEL-5
  −log10LC50: * (effect not reached at maximum dose of 0.05 millimolar)
  −log10TGI: 4.51 molar
IGROV1; Homo sapiens, IGROV-1, read-out: −log10GI50 (converted)
  IC50: 17.8 µM
IGROV1
  −log10LC50: * (effect not reached at maximum dose of 0.05 millimolar)
  −log10TGI: 4.3 molar
OVCAR-5; [1]
  IC50: 8.91 µM
OVCAR-5
  −log10LC50: 4.53 molar
  −log10TGI: 4.79 molar
OVCAR-8; [1]
  IC50: 6.92 µM
OVCAR-8
  −log10LC50: 4.37 molar
  −log10TGI: 4.77 molar
ACHN
  −log10LC50: 5.5 molar
  −log10TGI: 5.77 molar
ACHN; [1]
  IC50: 0.891 µM
CAKI-1
  −log10LC50: 4.48 molar
  −log10TGI: 4.83 molar
CAKI-1; [1]
  IC50: 6.61 µM
TK-10; [1]
  IC50: 1.58 µM
TK-10
  −log10LC50: 4.75 molar
  −log10TGI: 5.34 molar
UO-31; [1]
  IC50: 3.39 µM
UO-31
  −log10LC50: * (effect not reached at maximum dose of 0.05 millimolar)
  −log10TGI: 4.81 molar
PC-3; [1]
  IC50: 1.45 µM
PC-3
  −log10LC50: 4.64 molar
  −log10TGI: 5.35 molar
MCF7; Homo sapiens, MCF7 (Breast Cancer), 48 h, read-out: −log10GI50 (converted)
  IC50: 1.78 µM
MCF7; Homo sapiens, NCI-MCF7, MT477 ACTUAL
  GI50: 1.58 µM
MCF7; MCF7 (Breast Cancer), 48 h
  −log10LC50: * (effect not reached at maximum dose of 0.05 millimolar)
  −log10TGI: * (effect not reached at maximum dose of 0.05 millimolar)
MCF7; MT477 ACTUAL
  Activity against breast cancer NCI-MCF7: Yes
MDA-MB-231/ATCC; [1]
  IC50: 0.851 µM
MDA-MB-231/ATCC
  −log10LC50: 5.46 molar
  −log10TGI: 5.76 molar
T-47D; Homo sapiens, T47D, read-out: −log10GI50 (converted)
  IC50: 1.51 µM
T-47D
  −log10LC50: * (effect not reached at maximum dose of 0.05 millimolar)
  −log10TGI: 5.40 molar
SCK cells
  growth response: more effective than cisplatin
Lewis murine lung cells
  growth response: effective in human and mouse cell lung lines
ACHN cells
  growth response at low concentrations: effective even at very low doses, including micromolar dosages
